Source: patent US20250064741A1, “METHODS FOR ENHANCED NUCLEIC ACID DELIVERY” (CORNELL UNIVERSITY, priority 2021, published 2025)

Tested on: mice
Experiment: Screening drugs with macrophage/monocyte depletion capability for enhanced mRNA delivery (Fluc expression, MC3-LNP)
Type: in vivo
Conditions: Fluc mRNA 0.2 mg/kg
Protocol: FIGS. 6A-6B. Luciferase expression of pretreated mice injected with MC3-LNP loaded with Fluc mRNA (0.2 mg/kg).
In this example, various small molecules or monoclonal antibodies with reported macrophage depletion capabilities were screened to evaluate the effectiveness to enhance mRNA delivery. Drugs used in this study include clodronate liposome (Lipo-Clodronate), anti-CD115, anti-CCR2, anti-Ly6C, anti-Gr-1 and zoledronate (10 μg, 50 μg and 100 μg).
FIG. 5 lists treatment methods studied in this example. […] In a different experiment, zoledronate was encapsulated in liposomes (formulated with DSPC and cholesterol) and delivered to the mouse at different dosage.

In the case of `O=P(O)(O)C(O)(Cn1ccnc1)P(=O)(O)O` [zoledronate], the “mRNA delivery / Fluc expression of MC3-LNP in pretreated mice” value (10 μg of zoledronate) is reported as “enhanced the mRNA delivery” and the “Fluc expression of MC3-LNP in pretreated mice” value (high dose of zoledronate) is reported as “decreased the Fluc expression”.
